Assay results: PubChem BioAssay AID1259407 (Chemical Carcinogenesis Research Information System (CCRIS), 2018)
Active and inactive are the calls of the source. How the calls were made is not given here.

System: CCRIS mutagenicity, Ames/micronucleus/aberration tests
Assay: CCRIS mutagenicity studies

Measured: mutagenic call

CC(C)NCC(O)COc1ccc(CC(N)=O)cc1 (configuration not stated)
inactive: Test System: AMES SALMONELLA TYPHIMURIUM, Strain/Indicator: TA98, Metabolic Activation: NONE inactive; negative | Test System: AMES SALMONELLA TYPHIMURIUM, Strain/Indicator: TA98, Metabolic Activation: RAT, LIVER, S-9, AROCLOR 1254 inactive; negative | Test System: AMES SALMONELLA TYPHIMURIUM, Strain/Indicator: TA100, Metabolic Activation: NONE inactive; negative | Test System: AMES SALMONELLA TYPHIMURIUM, Strain/Indicator: TA100, Metabolic Activation: RAT, LIVER, S-9, AROCLOR 1254 inactive; negative | Test System: AMES SALMONELLA TYPHIMURIUM, Strain/Indicator: TA1535, Metabolic Activation: NONE inactive; negative | Test System: AMES SALMONELLA TYPHIMURIUM, Strain/Indicator: TA1535, Metabolic Activation: RAT, LIVER, S-9, AROCLOR 1254 inactive; negative | Test System: AMES SALMONELLA TYPHIMURIUM, Strain/Indicator: TA1537, Metabolic Activation: NONE inactive; negative | Test System: AMES SALMONELLA TYPHIMURIUM, Strain/Indicator: TA1537, Metabolic Activation: RAT, LIVER, S-9, AROCLOR 1254 inactive; negative | Test System: UDS HUMAN HEPATOCYTES, Strain/Indicator: THY INCORP, Metabolic Activation: NONE, Method: AUTORADIOGRAPHY inactive; negative | Test System: UDS RAT HEPATOCYTES, Strain/Indicator: THY INCORP, Metabolic Activation: NONE, Method: AUTORADIOGRAPHY inactive; negative

CC1(C)O[C@@H]1COc1c2occc2cc2ccc(=O)oc12
inactive: Test System: AMES SALMONELLA TYPHIMURIUM, Strain/Indicator: TA92, Metabolic Activation: NONE, Method: SPOT TEST inactive; negative | Test System: AMES SALMONELLA TYPHIMURIUM, Strain/Indicator: TA92, Metabolic Activation: RAT, LIVER, S-9, AROCLOR 1254, Method: SPOT TEST inactive; negative | Test System: AMES SALMONELLA TYPHIMURIUM, Strain/Indicator: TA94, Metabolic Activation: NONE, Method: SPOT TEST inactive; negative | Test System: AMES SALMONELLA TYPHIMURIUM, Strain/Indicator: TA94, Metabolic Activation: RAT, LIVER, S-9, AROCLOR 1254, Method: SPOT TEST inactive; negative | Test System: AMES SALMONELLA TYPHIMURIUM, Strain/Indicator: TA97, Metabolic Activation: NONE, Method: SPOT TEST inactive; negative | Test System: AMES SALMONELLA TYPHIMURIUM, Strain/Indicator: TA97, Metabolic Activation: RAT, LIVER, S-9, AROCLOR 1254, Method: SPOT TEST inactive; negative | Test System: AMES SALMONELLA TYPHIMURIUM, Strain/Indicator: TA98, Metabolic Activation: NONE, Method: SPOT TEST inactive; negative | Test System: AMES SALMONELLA TYPHIMURIUM, Strain/Indicator: TA98, Metabolic Activation: RAT, LIVER, S-9, AROCLOR 1254, Method: SPOT TEST inactive; negative | Test System: AMES SALMONELLA TYPHIMURIUM, Strain/Indicator: TA100, Metabolic Activation: NONE, Method: SPOT TEST inactive; negative | Test System: AMES SALMONELLA TYPHIMURIUM, Strain/Indicator: TA100, Metabolic Activation: RAT, LIVER, S-9, AROCLOR 1254, Method: SPOT TEST inactive; negative | Test System: AMES SALMONELLA TYPHIMURIUM, Strain/Indicator: TA102, Metabolic Activation: NONE, Method: SPOT TEST inactive; negative | Test System: AMES SALMONELLA TYPHIMURIUM, Strain/Indicator: TA102, Metabolic Activation: RAT, LIVER, S-9, AROCLOR 1254, Method: SPOT TEST inactive; negative
